Assay results reported in US20230099344A1, “COMPOUNDS AND METHODS FOR THE TARGETED DEGRADATION OF IRAK-4” (Arvinas Operations, Inc., priority 2021, published 2023).

Legend:
Type in all cases: cell-based
IRAK-4 = target: T1, IRAK-4 (Homo sapiens, UniProt Q9NWZ3); assay: IRAK-4 ELISA, PBMC degradation; design: endogenous in cells; host or cells: PBMC; conditions: treated overnight
T1 sequence (Q9NWZ3 1-460): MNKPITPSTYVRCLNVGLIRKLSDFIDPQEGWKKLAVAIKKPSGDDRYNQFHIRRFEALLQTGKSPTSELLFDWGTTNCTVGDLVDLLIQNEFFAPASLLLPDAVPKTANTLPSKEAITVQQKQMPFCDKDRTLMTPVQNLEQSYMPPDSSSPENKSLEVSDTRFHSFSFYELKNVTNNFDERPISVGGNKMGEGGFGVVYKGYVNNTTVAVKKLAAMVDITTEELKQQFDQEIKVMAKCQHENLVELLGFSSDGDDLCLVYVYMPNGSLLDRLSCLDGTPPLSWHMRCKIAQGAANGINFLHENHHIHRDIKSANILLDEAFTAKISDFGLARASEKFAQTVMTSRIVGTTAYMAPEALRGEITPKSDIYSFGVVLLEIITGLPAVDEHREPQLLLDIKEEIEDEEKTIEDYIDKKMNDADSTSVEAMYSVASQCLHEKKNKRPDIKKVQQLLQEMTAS
Procedure, shortened: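 ELISA quantification of cellular IRAK-4 after compound treatment overnight; PBMC were plated at 2×10^6/ml, OCI-Ly10 at 1×10^6/ml.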

IL6 [1] = assay: LPS stimulated IL6 inhibition assay in PBMC; conditions: Homo sapiens, PBMC, 24 h, human PBMCs, LPS stimulation, compound overnight, IL6 by MSD after 24 hrs; for Dmax: read-out: LPS Stim IL6 inhibition Dmax; for IC50: read-out: LPS stim IL6 inhibition IC50
Procedure, shortened: (§1)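 Human PBMC at 2.0×10^6 cells/mL were pre-treated with compound overnight, then stimulated with IL-1β, LPS or R848, each at the donor-specific EC50 concentration. After 24 hrs, supernatant IL6 and/or IL8 was measured by MSD.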

IL6 [2] = assay: R848 stimulated IL6 inhibition assay in PBMC; conditions: PBMC, human PBMCs, R848 stimulation, compound overnight, IL6 by MSD after 24 hrs; for Dmax: Homo sapiens, 24 h, read-out: R848 stim IL6 inhibition Dmax; for IC50: read-out: R848 stim IL6 inhibition IC50
Procedure, shortened: as §1

SMILES	DC50 (IRAK-4)	Dmax (IRAK-4)	PBMC DC90 (IRAK-4)	IC50 (IL6 [1])	IC50 (IL6 [2])	Dmax (IL6 [1])	Dmax (IL6 [2])
CC(C)Oc1cc2c(cc1NC(=O)c1cnn3cccnc13)CN(C1CCN(CC3CCN(c4ccc(F)c(C(=O)NC5CCC(=O)NC5=O)c4)CC3)CC1)C2=O (centres unmarked) [Example 303]	5 to 10 nM	80 to 90%	C (C represents a DC90 value ≥25.0 nM and <50 nM)	10 to 50 nM	10 to 50 nM	70 to 80%	≥ 90%
O=C1CCC(N2Cc3cc(N4CC(F)(CN5CCC(N6Cc7cc(NC(=O)c8cnn9cccnc89)c(N8CCC(N9CCC9)CC8)cc7C6=O)CC5)C4)ccc3C2=O)C(=O)N1 (centres unmarked) [Example 117]	1 to 5 nM	≥ 90%	B (B represents a DC90 value ≥10.0 nM and <25.0 nM)	10 to 50 nM	10 to 50 nM	70 to 80%	80 to 90%
O=C1CCC(N2C(=O)c3ccc(N4CC[C@H](O[C@H]5CC[C@@H](n6cc7cc(NC(=O)c8cnn9cccnc89)c(OCC8CC8)cc7n6)CC5)C4)cc3C2=O)C(=O)N1 (some centres unmarked) [Example 427]	≥ 10 nM	–	D (D represents a DC90 value ≥50 nM)	< 10 nM	10 to 50 nM	70 to 80%	< 70%
CC(C)Oc1cc2c(cc1NC(=O)c1cnn3cccnc13)CN(C1CCN(C(C)(C)C3CN(c4ccc(F)c(C(=O)NC5CCC(=O)NC5=O)c4)C3)CC1)C2=O (centres unmarked) [Example 311]	5 to 10 nM	80 to 90%	D (D represents a DC90 value ≥50 nM)	≥ 100 nM	10 to 50 nM	70 to 80%	≥ 90%
O=C1CCC(N2C(=O)c3ccc(N4CC(F)(CN5CCC(n6cc7cc(NC(=O)c8cnn9cccnc89)c(N8CCOCC8)cc7n6)CC5)C4)cc3C2=O)C(=O)N1 (centres unmarked) [Example 218]	5 to 10 nM	80 to 90%	D (D represents a DC90 value ≥50 nM)	10 to 50 nM	< 10 nM	70 to 80%	≥ 90%
O=C1CC[C@@H](N2C(=O)c3ccc(N4CC(F)(CN5CCC(n6cc7cc(NC(=O)c8cnn9cccnc89)c(OCC8CC8)cc7n6)CC5)C4)cc3C2=O)C(=O)N1 [Example 253]	1 to 5 nM	≥ 90%	B (B represents a DC90 value ≥10.0 nM and <25.0 nM)	10 to 50 nM	10 to 50 nM	< 70%	≥ 90%
O=C1CCC(N2C(=O)c3ccc(N4CC(F)(CN5CCC(n6cc7cc(NC(=O)c8cnn9cc(Cl)cnc89)c(OCC8CC8)cc7n6)CC5)C4)cc3C2=O)C(=O)N1 (centres unmarked) [Example 255]	≥ 10 nM	≥ 90%	D (D represents a DC90 value ≥50 nM)	50 to 100 nM	50 to 100 nM	70 to 80%	≥ 90%
CC(C)Oc1cc2nn([C@H]3CC[C@H](OC4CN(c5ccc6c(c5)CN(C5CCC(=O)NC5=O)C6=O)C4)CC3)cc2cc1NC(=O)c1cnn2cccnc12 (some centres unmarked) [Example 424]	1 to 5 nM	80 to 90%	B (B represents a DC90 value ≥10.0 nM and <25.0 nM)	< 10 nM	< 10 nM	< 70%	80 to 90%
CC(C)Oc1cc2c(cc1NC(=O)c1cnn3cccnc13)CN(C[C@@H](F)C1CN(CC3CCN(c4ccc5c(c4)C(=O)N(C4CCC(=O)NC4=O)C5=O)CC3)C1)C2=O (some centres unmarked) [Example 19]	1 to 5 nM	80 to 90%	A (A represents a DC90 value <10.0 nM)	10 to 50 nM	10 to 50 nM	80 to 90%	≥ 90%
COc1cc(N2CC(F)(CN3CCC(n4cc5cc(NC(=O)c6cnn7cccnc67)c(OC(C)C)nc5n4)CC3)C2)cc2c1C(=O)N(C1CCC(=O)NC1=O)C2=O (centres unmarked) [Example 241]	1 to 5 nM	70 to 80%	B (B represents a DC90 value ≥10.0 nM and <25.0 nM)	≥ 100 nM	10 to 50 nM	–	80 to 90%
O=C1CCC(N2C(=O)c3ccc(N4CCC(CN5CCC(N6Cc7cc(NC(=O)c8cnn9cccnc89)c(N8CCN(CC(F)F)CC8)cc7C6=O)CC5)CC4)cc3C2=O)C(=O)N1 (centres unmarked) [Example 52]	1 to 5 nM	≥ 90%	A (A represents a DC90 value <10.0 nM)	10 to 50 nM	10 to 50 nM	80 to 90%	80 to 90%
COc1c(N2CC(F)(CN3CCC(n4cc5cc(NC(=O)c6cnn7cccnc67)c(OCC6CC6)cc5n4)CC3)C2)ccc2c1C(=O)N(C1CCC(=O)NC1=O)C2=O (centres unmarked) [Example 246]	5 to 10 nM	< 70%	B (B represents a DC90 value ≥10.0 nM and <25.0 nM)	< 10 nM	< 10 nM	70 to 80%	≥ 90%

Second part, led by results:

DC50 (IRAK-4)	Dmax (IRAK-4)	PBMC DC90 (IRAK-4)	IC50 (IL6 [1])	IC50 (IL6 [2])	SMILES	Dmax (IL6 [1])	Dmax (IL6 [2])
< 1 nM	≥ 90%	A (A represents a DC90 value <10.0 nM)	10 to 50 nM	10 to 50 nM	CC(C)Oc1cc2c(cc1NC(=O)c1cnn3cccnc13)CN(C1CCN(CC3(O)CCN(c4ccc5c(c4)C(=O)N(C4CCC(=O)NC4=O)C5=O)CC3)CC1)C2=O (centres unmarked) [Example 109]	70 to 80%	≥ 90%
< 1 nM	≥ 90%	A (A represents a DC90 value <10.0 nM)	10 to 50 nM	10 to 50 nM	CC(C)Oc1nc2c(cc1NC(=O)c1cnn3cccnc13)CN(C1CCN(CC3CN(c4ccc(C(=O)NC5CCC(=O)NC5=O)c(F)c4)C3)CC1)C2=O (centres unmarked) [Example 402]	< 70%	80 to 90%
1 to 5 nM	70 to 80%	A (A represents a DC90 value <10.0 nM)	< 10 nM	10 to 50 nM	O=C1CCC(N2C(=O)c3cccc(N4CC5(CCCN(C6CCC(n7cc8cc(NC(=O)c9cnn%10cccnc9%10)c(OCC9CC9)cc8n7)CC6)C5)C4)c3C2=O)C(=O)N1 (centres unmarked) [Example 419]	70 to 80%	80 to 90%
< 1 nM	80 to 90%	A (A represents a DC90 value <10.0 nM)	< 10 nM	< 10 nM	O=C1CCC(N2Cc3c(ccc(N4CCC(CN5CCC(n6cc7cc(NC(=O)c8cnn9cccnc89)c(OCC(F)F)cc7n6)CC5)CC4)c3F)C2=O)C(=O)N1 (centres unmarked) [Example 154]	80 to 90%	≥ 90%
1 to 5 nM	≥ 90%	A (A represents a DC90 value <10.0 nM)	≥ 100 nM	50 to 100 nM	O=C1CCC(NC(=O)c2ccc(N3CCC(CN4CCC(N5Cc6cc(NC(=O)c7cnn8cccnc78)c(N7CCC(N8CCC8)CC7)cc6C5=O)CC4)CC3)cc2F)C(=O)N1 (centres unmarked) [Example 310]	70 to 80%	≥ 90%
1 to 5 nM	≥ 90%	A (A represents a DC90 value <10.0 nM)	10 to 50 nM	< 10 nM	CC(C)Oc1cc2c(cc1NC(=O)c1cnn3cccnc13)CN(C1CCN(C(C)(C)C3CN(c4ccc(C(=O)NC5CCC(=O)NC5=O)c(F)c4)C3)CC1)C2=O (centres unmarked) [Example 312]	≥ 90%	≥ 90%
1 to 5 nM	70 to 80%	A (A represents a DC90 value <10.0 nM)	10 to 50 nM	50 to 100 nM	CC(C)Oc1cc2c(cc1NC(=O)c1cnn3cccnc13)CN(C1CCN(CC3(F)CN(c4ccc5c(c4F)CN(C4CCC(=O)NC4=O)C5=O)C3)CC1)C2=O (centres unmarked) [Example 107]	≥ 90%	≥ 90%
< 1 nM	≥ 90%	A (A represents a DC90 value <10.0 nM)	10 to 50 nM	< 10 nM	CN(C1CN(c2ccc3c(c2F)CN(C2CCC(=O)NC2=O)C3=O)C1)[C@H]1CC[C@H](n2cc3cc(NC(=O)c4cnn5cccnc45)c(OCC(F)F)cc3n2)CC1 (some centres unmarked) [Example 362]	70 to 80%	≥ 90%
< 1 nM	80 to 90%	A (A represents a DC90 value <10.0 nM)	10 to 50 nM	< 10 nM	O=C1CCC(N2Cc3cc(N4CCC(CN5CCC(n6cc7cc(NC(=O)c8cnn9cccnc89)c(OCC(F)F)cc7n6)CC5)CC4)ccc3C2=O)C(=O)N1 (centres unmarked) [Example 149]	70 to 80%	≥ 90%
< 1 nM	80 to 90%	A (A represents a DC90 value <10.0 nM)	≥ 100 nM	10 to 50 nM	C=Nc1c(C(=O)Nc2cc3cn(C4CCN(CC5(F)CN(c6cccc7c6n(C)c(=O)n7C6CCC(=O)NC6=O)C5)CC4)nc3cc2C2CC2)cnn1/C=C\C (centres unmarked) [Example 389]	≥ 90%	≥ 90%
